{"source": "the supplement of paper PMC10307832", "test_in_all_cases": "relative viability (nuclei count vs DMSO), 5 days (fraction); higher = more cells survive", "key": {"[1]": {"system": "RERF-LC-KJ", "outline": "(§1)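 After 5 days of treatment, lung cancer cells in 1536-well plates were fixed and stained in a single step (final 0.05% Triton X-100, 1% formaldehyde, 1 ug/ml Hoechst) and their nuclei counted on 4× images. Treatment had been applied by pin tool the day after seeding as one drug alone or as a fixed anchor-drug dose with five library-drug doses (not always all listed) in √10 steps. Relative viability is the nuclei count of treated wells divided by that of vehicle wells, and values are medians of duplicate plates.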"}, "[2]": {"system": "HCC-44", "outline": "as §1"}, "[3]": {"system": "SW 1573", "outline": "as §1"}, "[4]": {"system": "NCI-H3122", "outline": "as §1"}, "[5]": {"system": "HCC-366", "outline": "as §1"}, "[6]": {"system": "LOU-NH91", "outline": "as §1"}, "[7]": {"system": "NCI-H2405", "outline": "as §1"}, "[8]": {"system": "NCI-H2085", "outline": "as §1"}, "[9]": {"system": "NCI-H1666", "outline": "as §1"}, "[10]": {"system": "EMC-BAC-2", "outline": "as §1"}, "[11]": {"system": "HCC-827", "outline": "as §1"}, "[12]": {"system": "NCI-H23", "outline": "as §1"}, "[13]": {"system": "EPLC-272H", "outline": "as §1"}, "[14]": {"system": "NCI-H1975", "outline": "as §1"}, "[15]": {"system": "NCI-H2126", "outline": "as §1"}, "[16]": {"system": "SW 900", "outline": "as §1"}, "[17]": {"system": "LK-2", "outline": "as §1"}, "[18]": {"system": "LXF-289", "outline": "as §1"}, "[19]": {"system": "LU99A", "outline": "as §1"}, "[20]": {"system": "HCC-78", "outline": "as §1"}, "[21]": {"system": "ChaGo-K-1", "outline": "as §1"}, "[22]": {"system": "LCLC-103H", "outline": "as §1"}, "[23]": {"system": "SK-LU-1", "outline": "as §1"}}, "data": [{"smiles": "CC(C)Oc1cc(Nc2nc(N[C@@H](C)c3ccc(F)cn3)ncc2Cl)n[nH]1", "note": "[AZ23] + CC(=O)Nc1cccc(-n2c(=O)n(C3CC3)c(=O)c3c(Nc4ccc(I)cc4F)n(C)c(=O)c(C)c32)c1 [Trametinib] (partner 0.02 µM)", "values": [{"measurement": "relative viability", "setting": "[1]; first compound 0.01 µM", "value": 0.837}, {"measurement": "relative viability", "setting": "[1]; first compound 0.03162 µM", "value": 0.883}, {"measurement": "relative viability", "setting": "[1]; first compound 0.3162 µM", "value": 0.862}, {"measurement": "relative viability", "setting": "[2]; first compound 0.01 µM", "value": 1.1}, {"measurement": "relative viability", "setting": "[2]; first compound 0.03162 µM", "value": 0.92}, {"measurement": "relative viability", "setting": "[2]; first compound 0.3162 µM", "value": 1.05}, {"measurement": "relative viability", "setting": "[3]; first compound 0.01 µM", "value": 0.693}, {"measurement": "relative viability", "setting": "[3]; first compound 0.03162 µM", "value": 0.604}, {"measurement": "relative viability", "setting": "[3]; first compound 0.3162 µM", "value": 0.458}, {"measurement": "relative viability", "setting": "[4]; first compound 0.01 µM", "value": 0.268}, {"measurement": "relative viability", "setting": "[4]; first compound 0.03162 µM", "value": 0.243}, {"measurement": "relative viability", "setting": "[4]; first compound 0.3162 µM", "value": 0.22}, {"measurement": "relative viability", "setting": "[5]; first compound 0.01 µM", "value": 0.334}, {"measurement": "relative viability", "setting": "[5]; first compound 0.03162 µM", "value": 0.399}, {"measurement": "relative viability", "setting": "[5]; first compound 0.3162 µM", "value": 0.33}, {"measurement": "relative viability", "setting": "[6]; first compound 0.01 µM", "value": 0.784}, {"measurement": "relative viability", "setting": "[6]; first compound 0.03162 µM", "value": 0.823}, {"measurement": "relative viability", "setting": "[6]; first compound 0.3162 µM", "value": 0.784}, {"measurement": "relative viability", "setting": "[7]; first compound 0.01 µM", "value": 0.572}, {"measurement": "relative viability", "setting": "[7]; first compound 0.03162 µM", "value": 0.673}, {"measurement": "relative viability", "setting": "[7]; first compound 0.3162 µM", "value": 0.599}, {"measurement": "relative viability", "setting": "[8]; first compound 0.01 µM", "value": 0.477}, {"measurement": "relative viability", "setting": "[8]; first compound 0.03162 µM", "value": 0.746}, {"measurement": "relative viability", "setting": "[8]; first compound 0.3162 µM", "value": 0.538}, {"measurement": "relative viability", "setting": "[9]; first compound 0.01 µM", "value": 0.804}, {"measurement": "relative viability", "setting": "[9]; first compound 0.03162 µM", "value": 0.847}, {"measurement": "relative viability", "setting": "[9]; first compound 0.3162 µM", "value": 0.903}, {"measurement": "relative viability", "setting": "[10]; first compound 0.01 µM", "value": 0.911}, {"measurement": "relative viability", "setting": "[10]; first compound 0.03162 µM", "value": 0.912}, {"measurement": "relative viability", "setting": "[10]; first compound 0.3162 µM", "value": 0.898}, {"measurement": "relative viability", "setting": "[11]; first compound 0.01 µM", "value": 0.456}, {"measurement": "relative viability", "setting": "[11]; first compound 0.03162 µM", "value": 0.563}, {"measurement": "relative viability", "setting": "[11]; first compound 0.3162 µM", "value": 0.557}, {"measurement": "relative viability", "setting": "[12]; first compound 0.03162 µM", "value": 0.364}, {"measurement": "relative viability", "setting": "[12]; first compound 0.3162 µM", "value": 0.361}, {"measurement": "relative viability", "setting": "[13]; first compound 0.03162 µM", "value": 0.267}, {"measurement": "relative viability", "setting": "[13]; first compound 0.3162 µM", "value": 0.274}, {"measurement": "relative viability", "setting": "[14]; first compound 0.01 µM", "value": 0.387}, {"measurement": "relative viability", "setting": "[14]; first compound 0.03162 µM", "value": 0.495}, {"measurement": "relative viability", "setting": "[14]; first compound 0.3162 µM", "value": 0.302}, {"measurement": "relative viability", "setting": "[15]; first compound 0.01 µM", "value": 0.574}, {"measurement": "relative viability", "setting": "[15]; first compound 0.03162 µM", "value": 0.556}, {"measurement": "relative viability", "setting": "[15]; first compound 0.3162 µM", "value": 0.532}, {"measurement": "relative viability", "setting": "[16]; first compound 0.01 µM", "value": 1.06}, {"measurement": "relative viability", "setting": "[16]; first compound 0.3162 µM", "value": 0.873}, {"measurement": "relative viability", "setting": "[17]; first compound 0.01 µM", "value": 0.949}, {"measurement": "relative viability", "setting": "[17]; first compound 0.03162 µM", "value": 0.916}, {"measurement": "relative viability", "setting": "[17]; first compound 0.3162 µM", "value": 0.681}, {"measurement": "relative viability", "setting": "[18]; first compound 0.01 µM", "value": 0.74}, {"measurement": "relative viability", "setting": "[18]; first compound 0.03162 µM", "value": 0.671}, {"measurement": "relative viability", "setting": "[18]; first compound 0.3162 µM", "value": 0.615}, {"measurement": "relative viability", "setting": "[19]; first compound 0.01 µM", "value": 0.519}, {"measurement": "relative viability", "setting": "[19]; first compound 0.03162 µM", "value": 0.708}, {"measurement": "relative viability", "setting": "[19]; first compound 0.3162 µM", "value": 0.536}, {"measurement": "relative viability", "setting": "[20]; first compound 0.01 µM", "value": 0.494}, {"measurement": "relative viability", "setting": "[20]; first compound 0.03162 µM", "value": 0.669}, {"measurement": "relative viability", "setting": "[20]; first compound 0.3162 µM", "value": 0.418}, {"measurement": "relative viability", "setting": "[21]; first compound 0.01 µM", "value": 0.855}, {"measurement": "relative viability", "setting": "[21]; first compound 0.03162 µM", "value": 0.921}, {"measurement": "relative viability", "setting": "[21]; first compound 0.3162 µM", "value": 0.979}, {"measurement": "relative viability", "setting": "[22]; first compound 0.01 µM", "value": 0.741}, {"measurement": "relative viability", "setting": "[22]; first compound 0.03162 µM", "value": 0.7}, {"measurement": "relative viability", "setting": "[22]; first compound 0.3162 µM", "value": 0.655}, {"measurement": "relative viability", "setting": "[23]; first compound 0.03162 µM", "value": 0.509}, {"measurement": "relative viability", "setting": "[23]; first compound 0.3162 µM", "value": 0.474}]}]}
